Results: ChEMBL document CHEMBL1250451, “Mechanistic insights into a Ca2+-dependent family of alpha-mannosidases in a human gut symbiont” (Nat Chem Biol, 2010)
Active and inactive are the calls of the source. The rule behind the calls is not given here.

Tests used:
Assay type in all cases: protein assay
[1] = target: T1, Alpha-1,2-mannosidase family protein (BT_1032) (Bacteroides thetaiotaomicron) (UniProt Q8A8Y5); experiment: Activity of Bacteroides thetaiotaomicron GH92 alpha-mannosidase 1032 assessed as mannose release at 1 mM after 16 hrs by HPLC relative to untreated control
T1 sequence (whole entry): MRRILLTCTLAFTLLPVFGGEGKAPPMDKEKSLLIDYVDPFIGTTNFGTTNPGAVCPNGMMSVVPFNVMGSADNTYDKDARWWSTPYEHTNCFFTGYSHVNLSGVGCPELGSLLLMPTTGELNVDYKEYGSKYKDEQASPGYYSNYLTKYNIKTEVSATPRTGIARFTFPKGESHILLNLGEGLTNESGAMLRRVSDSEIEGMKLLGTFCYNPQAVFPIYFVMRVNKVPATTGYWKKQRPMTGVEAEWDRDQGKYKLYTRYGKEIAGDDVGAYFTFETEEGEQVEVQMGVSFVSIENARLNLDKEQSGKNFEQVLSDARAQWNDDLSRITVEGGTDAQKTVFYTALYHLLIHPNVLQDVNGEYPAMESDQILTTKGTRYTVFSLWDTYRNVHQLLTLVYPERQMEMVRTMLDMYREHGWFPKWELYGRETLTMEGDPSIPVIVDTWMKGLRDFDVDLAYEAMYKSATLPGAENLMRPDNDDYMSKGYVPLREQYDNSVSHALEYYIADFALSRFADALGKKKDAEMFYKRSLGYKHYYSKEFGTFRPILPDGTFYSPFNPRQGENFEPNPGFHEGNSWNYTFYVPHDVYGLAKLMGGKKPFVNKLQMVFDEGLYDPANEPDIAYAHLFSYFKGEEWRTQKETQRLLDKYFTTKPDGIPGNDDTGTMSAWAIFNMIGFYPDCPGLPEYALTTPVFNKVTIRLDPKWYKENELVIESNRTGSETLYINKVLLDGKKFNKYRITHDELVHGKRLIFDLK

[2] = target: T2, Alpha-1,2-mannosidase (BT_2948) (Bacteroides thetaiotaomicron) (UniProt Q8A3K6); experiment: Activity of Bacteroides thetaiotaomicron GH92 alpha-mannosidase GH92 alpha-mannosidase 2948 assessed as mannose release at 1 mM after 16 hrs by HPLC relative to untreated control after 16 hrs by HPLC
T2 sequence (whole entry): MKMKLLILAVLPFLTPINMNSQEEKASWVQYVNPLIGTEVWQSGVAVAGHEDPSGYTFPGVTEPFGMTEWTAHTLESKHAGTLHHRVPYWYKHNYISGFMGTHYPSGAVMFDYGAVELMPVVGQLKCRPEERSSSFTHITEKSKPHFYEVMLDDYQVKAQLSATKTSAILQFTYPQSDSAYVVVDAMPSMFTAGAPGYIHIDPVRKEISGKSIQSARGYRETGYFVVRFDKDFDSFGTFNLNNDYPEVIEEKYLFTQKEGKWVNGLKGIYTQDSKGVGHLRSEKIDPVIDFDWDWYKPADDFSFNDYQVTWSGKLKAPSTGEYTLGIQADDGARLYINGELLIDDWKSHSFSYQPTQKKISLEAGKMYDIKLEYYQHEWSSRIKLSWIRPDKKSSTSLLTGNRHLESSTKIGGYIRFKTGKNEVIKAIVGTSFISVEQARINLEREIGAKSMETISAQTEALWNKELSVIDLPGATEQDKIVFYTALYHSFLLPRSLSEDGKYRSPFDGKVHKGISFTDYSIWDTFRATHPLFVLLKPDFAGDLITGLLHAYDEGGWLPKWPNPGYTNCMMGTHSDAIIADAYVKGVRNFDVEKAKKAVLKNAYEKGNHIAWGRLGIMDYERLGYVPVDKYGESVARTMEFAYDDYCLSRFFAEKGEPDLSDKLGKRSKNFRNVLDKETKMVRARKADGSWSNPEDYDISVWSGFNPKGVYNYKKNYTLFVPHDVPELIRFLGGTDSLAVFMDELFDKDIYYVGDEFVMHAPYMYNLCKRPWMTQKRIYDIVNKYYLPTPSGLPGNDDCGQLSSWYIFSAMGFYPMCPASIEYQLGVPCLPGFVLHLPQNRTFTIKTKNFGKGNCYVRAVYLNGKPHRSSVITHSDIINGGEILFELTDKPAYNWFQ

[3] = target: T3, Alpha-1,2-mannosidase (BT_3858) (Bacteroides thetaiotaomicron) (UniProt Q8A113); experiment: Activity of Bacteroides thetaiotaomicron GH92 alpha-mannosidase GH92 alpha-mannosidase 3858 assessed as mannose release at 1 mM after 16 hrs by HPLC relative to untreated control after 16 hrs by HPLC
T3 sequence (whole entry): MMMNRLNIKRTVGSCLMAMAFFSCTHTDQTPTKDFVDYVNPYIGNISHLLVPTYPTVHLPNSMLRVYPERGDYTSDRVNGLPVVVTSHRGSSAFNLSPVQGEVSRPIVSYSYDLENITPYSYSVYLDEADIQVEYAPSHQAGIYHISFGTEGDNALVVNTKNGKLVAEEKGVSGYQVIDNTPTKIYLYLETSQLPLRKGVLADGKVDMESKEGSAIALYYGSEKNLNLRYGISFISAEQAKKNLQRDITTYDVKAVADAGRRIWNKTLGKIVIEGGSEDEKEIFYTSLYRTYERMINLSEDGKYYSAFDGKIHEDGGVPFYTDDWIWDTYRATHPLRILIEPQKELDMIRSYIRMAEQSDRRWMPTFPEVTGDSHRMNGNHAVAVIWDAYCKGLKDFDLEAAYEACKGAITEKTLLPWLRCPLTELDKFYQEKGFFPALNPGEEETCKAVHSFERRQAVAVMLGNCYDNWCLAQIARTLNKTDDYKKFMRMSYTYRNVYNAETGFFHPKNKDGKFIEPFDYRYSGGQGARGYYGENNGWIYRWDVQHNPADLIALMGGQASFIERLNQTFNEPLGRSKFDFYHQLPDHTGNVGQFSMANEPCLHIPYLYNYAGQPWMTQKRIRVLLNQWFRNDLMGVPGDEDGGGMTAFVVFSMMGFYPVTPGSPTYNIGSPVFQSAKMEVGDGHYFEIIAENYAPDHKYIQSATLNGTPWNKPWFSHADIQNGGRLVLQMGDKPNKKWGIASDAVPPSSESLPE

Activity [1] | Activity [2] | Activity [3] [%] | Structure (SMILES)
inactive | inactive | 0.045 | OC[C@H]1O[C@H](O[C@H]2[C@@H](O)[C@H](O)[C@@H](CO)O[C@@H]2O)[C@@H](O)[C@@H](O)[C@@H]1O
inactive | inactive |  | OC[C@H]1O[C@H](O[C@@H]2[C@H](O)[C@@H](O)O[C@H](CO)[C@H]2O)[C@@H](O)[C@@H](O)[C@@H]1O
inactive | inactive | 0.1 | OC[C@H]1O[C@H](O[C@H]2[C@H](O)[C@H](O)[C@@H](O)O[C@@H]2CO)[C@@H](O)[C@@H](O)[C@@H]1O
inactive | inactive | 0.0025 | OC[C@H]1O[C@H](OC[C@H]2O[C@H](O)[C@@H](O)[C@@H](O)[C@@H]2O)[C@@H](O)[C@@H](O)[C@@H]1O
